Assay results as given in US8124380B2 (priority 2003, dated 2012).
Where “and” joins values, the source holds several entries; their conditions need not be identical. Identical values can stand only once.

Assays:
mIgG D15-7 = type: binding, murine
mIgG C1-7 = type: binding, murine
mIgG E4-1 = type: binding, murine
mIgG F22-4 = type: binding, murine
mIgG A2-1 = type: binding, murine
[1] = test system: mIgG F22-4, D15-7, A2-1, E4-1, C1-7; type: binding, murine
LPS 2a = test system: LPS 2a; design: species or system mice; settings: in vivo

Compound | IC50 (mIgG D15-7) [µM] | IC50 (mIgG C1-7) [µM] | IC50 (mIgG E4-1) | IC50 (mIgG F22-4) | IC50 (mIgG A2-1) [µM] | improving Ab binding by a factor (mIgG D15-7) | improving Ab binding by a factor (mIgG E4-1) | gain in recognition / binding improvement by a factor (mIgG A2-1) | fold increase in binding (mIgG A2-1) [fold] | recognition (binding) by the mIgG [1] | Anti-LPS 2a antibody titer, individual mouse (1) (LPS 2a) | Anti-LPS 2a antibody titer, individual mouse (2) (LPS 2a)
CO[C@@H]1O[C@@H](C)[C@H](O)[C@@H](O)[C@H]1O[C@@H]1O[C@@H](C)[C@H](O)[C@@H](O)[C@H]1O[C@@H]1O[C@H](CO)[C@@H](O)[C@H](O[C@@H]2O[C@@H](C)[C@H](O[C@H]3O[C@H](CO)[C@@H](O)[C@H](O)[C@H]3O)[C@@H](O)[C@H]2O)[C@H]1NC(C)=O [(E)CDAB, Methyl α-D-glucopyranosyl-(1→4)-α-L-rhamnopyranosyl-(1→3)-2-acetamido-2-deoxy-β-D-glucopyranosyl-(1→2)-α-L-rhamnopyranosyl-(1→2)-α-L-rhamnopyranoside] | > 1000 | > 1000 | > 1000 µM | 354 µM | > 1000 | – | – | – | – | – | – | –
COC1OC(C)C(O)C(O)C1OC1OC(CO)C(O)C(OC2OC(C)C(OC3OC(CO)C(O)C(O)C3O)C(O)C2O)C1NC(C)=O (stereo not shown) [(E)CDA] | > 1000 | > 1000 | > 1000 µM | 181 µM | > 1000 | – | – | – | – | – | – | –
CO[C@@H]1O[C@H](CO)[C@@H](O)[C@H](O[C@@H]2O[C@@H](C)[C@H](O[C@H]3O[C@H](CO)[C@@H](O)[C@H](O)[C@H]3O)[C@@H](O[C@@H]3O[C@@H](C)[C@H](O)[C@@H](O)[C@H]3O[C@@H]3O[C@@H](C)[C@H](O)[C@@H](O)[C@H]3O)[C@H]2O)[C@H]1NC(C)=O [AB(E)CD, Methyl α-L-rhamnopyranosyl-(1→2)-α-L-rhamnopyranosyl-(1→3)-[α-D-glucopyranosyl-(1→4)]-α-L-rhamnopyranosyl-(1→3)-2-acetamido-2-deoxy-β-D-glucopyranoside] | 490 | 734 | 287 µM and 288 µM | 21 µM and 21.6 µM | 378 | – | – | – | – | – | – | –
CO[C@@H]1O[C@H](CO)[C@@H](O)[C@H](O[C@@H]2O[C@@H](C)[C@H](O[C@H]3O[C@H](CO)[C@@H](O)[C@H](O)[C@H]3O)[C@@H](O[C@@H]3O[C@@H](C)[C@H](O)[C@@H](O)[C@H]3O)[C@H]2O)[C@H]1NC(C)=O [B(E)CD, Methyl α-L-rhamnopyranosyl-(1→3)-[α-D-glucopyranosyl-(1→4)]-α-L-rhamnopyranosyl-(1→3)-2-acetamido-2-deoxy-β-D-glucopyranoside] | 198 | > 1000 | 87 µM | 5 µM | > 1000 | – | – | – | – | – | – | –
COC1OC(C)C(OC2OC(CO)C(O)C(O)C2O)C(OC2OC(C)C(O)C(O)C2OC2OC(C)C(O)C(O)C2OC2OC(CO)C(O)C(OC3OC(C)C(OC4OC(CO)C(O)C(O)C4O)C(OC4OC(C)C(O)C(O)C4O)C3O)C2NC(C)=O)C1O (stereo not shown) [B(E)CDA B(E)C] | 60.8 | 242 | 12 µM | 0.22 µM | 12.9 | ~4 | ~4 | ~25 | – | – | – | –
CO[C@@H]1O[C@@H](C)[C@H](O)[C@@H](O)[C@H]1O[C@@H]1O[C@H](CO)[C@@H](O)[C@H](O[C@@H]2O[C@@H](C)[C@H](O[C@H]3O[C@H](CO)[C@@H](O)[C@H](O)[C@H]3O)[C@@H](O[C@@H]3O[C@@H](C)[C@H](O)[C@@H](O)[C@H]3O)[C@H]2O)[C@H]1NC(C)=O [B(E)CDA] | 240 | 400 | 75 µM | 2.5 µM | 350 | – | – | – | – | – | – | –
COC1OC(C)C(OC2OC(CO)C(O)C(O)C2O)C(OC2OC(C)C(O)C(O)C2O)C1O (stereo not shown) [B(E)C] | > 1000 | > 1000 | > 1000 µM | > 1000 µM | > 1000 | – | – | – | – | – | – | –
COC1OC(C)C(OC2OC(CO)C(O)C(O)C2O)C(OC2OC(C)C(O)C(O)C2OC2OC(C)C(O)C(O)C2OC2OC(CO)C(O)C(OC3OC(C)C(OC4OC(CO)C(O)C(O)C4O)C(OC4OC(C)C(O)C(O)C4OC4OC(C)C(O)C(O)C4OC4OC(CO)C(O)C(O)C4NC(C)=O)C3O)C2NC(C)=O)C1O [DA B(E)CDA B(E)C, Methyl (2-acetamido-2-deoxy-β-D-glucopyranosyl)-(1→2)-(α-L-rhamnopyranosyl)-(1→2)-(α-L-rhamnopyranosyl)-(1→3)-[α-D-glucopyranosyl-(1→4)]-(α-L-rhamnopyranosyl)-(1→3)-(2-acetamido-2-deoxy-β-D-glucopyranosyl)-(1→2)-(α-L-rhamnopyranosyl)-(1→2)-(α-L-rhamnopyranosyl)-(1→3)-[α-D-glucopyranosyl-(1→4)]-α-L-rhamnopyranoside] | 11.9 | 19 | 4.4 µM | 5 µM | 3 | – | – | – | 100 | – | – | –
COC1OC(C)C(OC2OC(CO)C(O)C(O)C2O)C(OC2OC(C)C(O)C(O)C2OC2OC(C)C(O)C(O)C2OC2OC(CO)C(O)C(O)C2NC(C)=O)C1O (stereo not shown) [DAB(E)C] | > 1000 | > 1000 | > 1000 µM | > 1000 µM | > 1000 | – | – | – | – | absence of recognition | – | –
TT: tetanus toxoid alone (140 μg/mice/injection), control [reference compound] | – | – | – | – | – | – | – | – | – | – | 0 | 0
